In patent publication US11110195B2, “Esculentin 1a derivatives and uses thereof” (University of Houston System, priority 2013, dated 2021):
≈ marks a conversion by molar mass, not a printed value. Read-outs that look alike come from different tables or passages of the source. Residues, ends and D or L forms follow the SMILES beside them.

Columns and labels:
P. aeruginosa ATCC 27853 [1] = details: soluble free form, 1 μM, within 20 minutes in PBS
[2] = tested on: Staphylococcus epidermidis; details: Staphylococcus epidermidis n. 21 (326) ME, clinical ocular isolate
Description: (§1) To determine the minimum inhibitory concentration (MIC) of Esc-1a(1-21)NH2 that causes total inhibition of microbial growth against Pseudomonas aeruginosa and Staphylococcal strains, the following experiment (using P. aeruginosa ATCC 19660 as an example) was performed. MIC was determined using the 96 well micro-plate dilution assay. The test was performed in triplicate wells and Esc-1a(1-21)NH2 was serially diluted to give concentrations of 0.125 μM to 64 μM.
(§2) Day 1: Picked a colony from a P. aeruginosa ATCC19660 streak plate, inoculated in to nutrient broth and incubated overnight at 37° C. with shaking (250 rpm) Day 2 Steps: Removed 100 μl of the bacterial suspension and inoculated into 50 ml of fresh broth. Incubated for 2.5 hours with vigorous shaking (250 rpm) at 37° C. to achieve mid-log phase growth. Centrifuged the 50 ml culture at 3100 g for 10 minutes; discarded supernatant and resuspended pellet in 2 ml Muller-Hinton broth (MHB). Adjusted the optical density (OD) of the bacterial culture to 0.2 at 620 nm (corresponds to ˜10^7 CFU/ml) and diluted to 2×10^6 CFU/ml using MHB media. Thawed an aliquot of the peptide on ice. Pipetted 90 μl of MHB into wells A1, B1 and C1 and 50 μl of MHB media into A2-C2 through A12-C12. Added 10 μl of Esc-1a(1-21)NH2 into wells A1, B1 and C1 and performed serial twofold dilutions of peptide in a volume of 50 μl from column 1 to column 10 (i.e. transferred 50 μl from A1, B1 and C1 to A2, B2 and C2 and so on till A10-C10). […] Pipetted 50 μl of the diluted P. aeruginosa ATCC 19660 in to each well using a multichannel pipette (final concentration was 1×10^5 bacteria in 100 μl volume). Wrapped the plate using parafilm to prevent evaporation and incubated in a shaker incubator (150 rpm) at 37° C. for 18-24 h.
(§3) Day 3 Steps: Read the plate using the spectrophotometer at 590 nm after examining the plates visually for turbidity. Generated spot plates to check for bacterial growth by plating out the contents of the first 3 wells showing no visible growth of bacteria onto MHA plates. Plated dilutions in duplicate and incubated the plates at 37° C. for 18 hr.
(§4) Day 4: Counted the number of colonies on the agar plates and plotted the data.

Pseudomonas aeruginosa = tested on: Pseudomonas aeruginosa
Description: as §1, §2, §3, §4

Staphylococcus hominis = Staphylococcus hominis n. 1 ME, clinical ocular isolate
Description: as §1, §2, §3, §4

Staphylococcus aureus = Staphylococcus aureus n. 6 ME, clinical ocular isolate
Description: as §1, §2, §3, §4

P. aeruginosa ATCC 27853 [3] = experiment: Bactericidal activity in the presence of salt (NaCl); format: cell-based, Pseudomonas aeruginosa; details: 150 mM NaCl, 37° C., 20 min
Description: FIGS. 1A-1B show the effects of salt on the bactericidal activity of Esc-1a(1-21)NH2 against P. aeruginosa ATCC 27853. FIG. 1A: Bacterial cells were incubated with different concentrations of Esc-1a(1-21)NH2 in the presence of 150 mM NaCl for 20 minutes at 37° C. Mean data from three experiments, expressed as the percentage of bacteria killed by the peptide with respect to the control sample (bacteria not treated with the peptide) are reported. FIG. 1B: Bacterial cells were incubated with the peptide (1 μM) in the absence or in the presence of varying concentrations of NaCl at 37° C. for 20 minutes. Mean data from three experiments, expressed as the percentage of bacteria killed by the peptide with respect to the control sample (bacteria not treated with the peptide) are reported.
Owing to their mode of action, the antimicrobial activity of antimicrobial peptides may be reduced in the presence of salt. […] In FIG. 1B, 2×10^6 CFU/ml P. aeruginosa (ATCC 27853) were incubated with 1 μM Esc-1a(1-21)NH2 in the presence of increasing amounts of NaCl at 37° C. for 20 minutes then aliquots plated and counted (n=3). Concentrations of Esc-1a(1-21)NH2 at 0.68 μM and above fully retained activity in 150 mM NaCl, the physiological salt concentration at the ocular surface.

Raw 264.7 macrophages = experiment: MTT viability assay, Raw 264.7 macrophages; details: 128 μM, 24 h incubation
Description: (§5) Cell viability is expressed as percentage with respect to the control (cells not treated with the peptides). Data points represent the mean of triplicate samples ±SEM. […] The levels of statistical significance between the two peptides are indicated as follows: **p<0.01, ***p<0.001.
(§6) Cells were plated in wells of a microtiter plate, at 4×10^4 cells/well in DMEM supplemented with 2 mM glutamine and 2% FBS (for A549 cells) or DMEM containing 2 mM glutamine, non-essential amino acids (NEAA), sodium pyruvate and 2% FBS (for Raw 264.7 macrophages). After overnight incubation at 37° C. in a 5% CO2 atmosphere, the medium was replaced with 100 μl fresh serum-free medium supplemented with the peptides at different concentrations. After 24 h of peptide treatment, cell viability was determined by a MTT assay.

[4] = MTT viability assay, Raw 264.7 macrophages; details: mouse, Raw 264.7 macrophages
Description: as §5, §6

CC[C@H](C)[C@H](NC(=O)CN)C(=O)N[C@@H](Cc1ccccc1)C(=O)N[C@@H](CO)C(=O)N[C@@H](CCCCN)C(=O)N[C@@H](CC(C)C)C(=O)N[C@@H](C)C(=O)NCC(=O)N[C@@H](CCCCN)C(=O)N[C@@H](CCCCN)C(=O)N[C@H](C(=O)N[C@@H](CCCCN)C(=O)N[C@@H](CC(N)=O)C(=O)N[C@@H](CC(C)C)C(=O)N[C@@H](CC(C)C)C(=O)N[C@H](C(=O)N[C@@H](CO)C(=O)NCC(=O)N[C@@H](CC(C)C)C(=O)N[C@@H](CCCCN)C(=O)NCC(N)=O)[C@@H](C)CC)[C@@H](C)CC [Esc-1a(1-21)NH2] (H-GIFSKLAGKKIKNLLISGLKG-NH2; N-terminus assumed)
killing (P. aeruginosa ATCC 27853 [1]): ~99.9% | MIC [2]: 8 µM (≈ 17.5 µg/mL) | MIC values range (Pseudomonas aeruginosa; P. aeruginosa clinical isolates): 2 to 8 µM | MIC (Pseudomonas aeruginosa; Pseudomonas aeruginosa 1 Rm, clinical ocular isolate): 4 µM (≈ 8.74 µg/mL) | MIC (Pseudomonas aeruginosa; Pseudomonas aeruginosa ATCC 19660, reference strain): 16 µM (≈ 35 µg/mL) | MIC (Pseudomonas aeruginosa; Pseudomonas aeruginosa R1, clinical ocular isolate): 2 µM (≈ 4.37 µg/mL) | MIC (Pseudomonas aeruginosa; Pseudomonas aeruginosa n. 2 ME, clinical ocular isolate): 8 µM (≈ 17.5 µg/mL) | MIC (Pseudomonas aeruginosa; Pseudomonas aeruginosa n. 3, clinical ocular isolate): 8 µM (≈ 17.5 µg/mL) | MIC (Staphylococcus hominis): 1 µM (≈ 2.18 µg/mL) | MIC (Staphylococcus aureus): 64 µM (≈ 140 µg/mL) | Peptide concentration fully retaining bactericidal activity (P. aeruginosa ATCC 27853 [3]): ≥ 0.68 µM | killing (Raw 264.7 macrophages): 100% | CC50 at 24 h [4]: 64 µM
